Laboratory results reported in US10683327B2, “Compounds, linker-drugs and ligand-drug conjugates” (priority 2015, dated 2020).
Read-outs that look alike come from different tables or passages of the source. Numbered stars: 1 amine (or outer) side, 2 acyl side, 3 side chain; on linkers, the order of the positions; unused ones are H or OH. Square brackets hold non-standard residues; d marks the D form. Peptide text beside a SMILES is read from it. * marks the point of attachment. ξ: configuration not given here. X1 = CC[C@H](C)[C@H]([C@@H](CC(=O)[*:2])OC)N(C)[*:1]; Phe(4-NO2) = N[C@@H](Cc1ccc([N+](=O)[O-])cc1)C(=O)O; Dolaproine = CO[C@@H]([C@@H]1CCCN1)[C@@H](C)C(=O)O; ξDil = CC[C@H](C)C([C@@H](CC(=O)[*:2])OC)N(C)[*:1]; Dil = CC[C@H](C)[C@H](NC)[C@@H](CC(=O)O)OC; Phe(4-NH2) = Nc1ccc(C[C@H](N)C(=O)O)cc1; NMe2Val = CC(C)[C@@H](C(=O)*)N(C)C; X2 = C[C@@H](N*)[C@@H](O)c1ccccc1; NMeV = CN[C@H](C(=O)O)C(C)C; ξF = NC(Cc1ccccc1)C(=O)O; ξV = CC(C)C(N)C(=O)O

System: FaDu cells
Experiment: Potency of AF derivatives: FaDu cell viability by the MTT method
Type: cell-based
Settings: for IC50: exposure to toxins for 120 hours, MTT; for potency in FaDu cells compared with MMAE and auristatin F (AF): statement in words on Table 2
Method: FaDu cells were seeded in Corning CellBIND 96-well plates at densities of 2500 cells/well. […] Then, the cells were rinsed once and assayed for cell viability with the MTT method. The old medium was aspirated and 100 uL of 0.5 mg/mL MTT containing medium was added into each well. After incubation for 4 hours, the MTT reagent was removed and the precipitate was dissolved in DMSO. The photometry intensity of the cells was measured by the microplate reader (Multiskan Ascent, Thermo Labsystems) of absorbance wavelength at 570 nm. Cell viability was calculated by the following equation. Cell Viability (%)=(Ins−Inb)/(Inc−Inb)×100%
In this equation, “Ins” is the photometry intensity of the cells incubated with a given toxin, “Inb” is the intensity of a blank well without cell seeding, and “Inc” is the intensity of the cells incubated with the culture medium only (positive control).

| SMILES | IC50 (Homo sapiens, FaDu, 120 h, n=6) [nM] | potency in FaDu cells compared with MMAE and auristatin F (AF) | IC50 (n=6, read-out: IC50) [nM] | IC50 (n=6) [nM] |
| --- | --- | --- | --- | --- |
| CC[C@H](C)C([C@@H](CC(=O)N1CCC[C@H]1[C@H](OC)[C@@H](C)C(=O)NC(Cc1ccccc1)C(=O)NCCc1ccc(N)cc1)OC)N(C)C(=O)C(NC(=O)[C@H](C(C)C)N(C)C)C(C)C (some centres unmarked) [APEA-AF] | 0.7 | comparable to the well-known toxin MMAE |  |  |
| CC[C@H](C)[C@@H]([C@@H](CC(=O)N1CCC[C@H]1[C@H](OC)[C@@H](C)C(=O)N[C@H](C)[C@@H](O)c1ccccc1)OC)N(C)C(=O)[C@@H](NC(=O)[C@@H](NC)C(C)C)C(C)C [MMAE, reference compound] (H-[NMeV]V[Dil][Dolaproine]-X2) |  |  | 0.38 |  |
| CC[C@H](C)C([C@@H](CC(=O)N1CCC[C@H]1[C@H](OC)[C@@H](C)C(=O)NC(Cc1ccc(N)cc1)C(=O)NCCc1ccccc1)OC)N(C)C(=O)C(NC(=O)[C@H](C(C)C)N(C)C)C(C)C (some centres unmarked) [PEA-AAF] |  |  |  | 0.39 |
| CC[C@H](C)C([C@@H](CC(=O)N1CCC[C@H]1[C@H](OC)[C@@H](C)C(=O)NC(Cc1ccccc1)C(=O)N[C@@H](Cc1ccc([N+](=O)[O-])cc1)C(=O)O)OC)N(C)C(=O)C(NC(=O)[C@H](C(C)C)N(C)C)C(C)C (some centres unmarked) [NPEA(COOH)-AF] (NMe2Val-[ξV][ξDil][Dolaproine][ξF][Phe(4-NO2)]-OH) | 23.2 |  |  |  |
| CC[C@H](C)C([C@@H](CC(=O)N1CCC[C@H]1[C@H](OC)[C@@H](C)C(=O)NC(Cc1ccc(N)cc1)C(=O)Nc1cnc2ccccc2c1)OC)N(C)C(=O)C(NC(=O)[C@H](C(C)C)N(C)C)C(C)C (some centres unmarked) [3AQ-AAF] |  |  |  | 0.49 |
| CC[C@H](C)C([C@@H](CC(=O)N1CCC[C@H]1[C@H](OC)[C@@H](C)C(=O)NC(Cc1ccc(N)cc1)C(=O)Nc1cnc2ccccc2c1)OC)N(C)C(=O)C(NC(=O)[C@H](C(C)C)N(C)C)C(C)C (some centres unmarked) [3AQ-ANF] | 0.35 | comparable to the well-known toxin MMAE |  |  |
| CC[C@H](C)[C@H]([C@@H](CC(=O)N1CCC[C@H]1[C@H](OC)[C@@H](C)C(=O)NC(Cc1ccccc1)C(=O)N[C@@H](Cc1ccc(N)cc1)C(=O)OC)OC)N(C)C(=O)[C@@H](NC(=O)[C@H](C(C)C)N(C)C)C(C)C (some centres unmarked) [APEA(COOMe)-AF] (NMe2Val-V[X1][Dolaproine][ξF][Phe(4-NH2)]-OMe) | 0.93 | comparable to the well-known toxin MMAE |  |  |
| CC[C@H](C)[C@@H]([C@@H](CC(=O)N1CCC[C@H]1[C@H](OC)[C@@H](C)C(=O)N[C@@H](Cc1ccccc1)C(=O)O)OC)N(C)C(=O)[C@@H](NC(=O)[C@H](C(C)C)N(C)C)C(C)C [AF, auristatin F, reference compound] (NMe2Val-V[Dil][Dolaproine]F-OH) |  |  | 15.2 |  |
| CC[C@H](C)C([C@@H](CC(=O)N1CCC[C@H]1[C@H](OC)[C@@H](C)C(=O)NC(Cc1ccc(N)cc1)C(=O)NCCc1ccccc1)OC)N(C)C(=O)C(NC(=O)[C@H](C(C)C)N(C)C)C(C)C (some centres unmarked) [PEA-ANF] |  | comparable to the well-known toxin MMAE |  | 1.26 |
| CC[C@H](C)[C@H]([C@@H](CC(=O)N1CCC[C@H]1[C@H](OC)[C@@H](C)C(=O)NC(Cc1ccccc1)C(=O)N[C@@H](Cc1ccc(N)cc1)C(=O)O)OC)N(C)C(=O)[C@@H](NC(=O)[C@H](C(C)C)N(C)C)C(C)C (some centres unmarked) [APEA(COOH)-AF] (NMe2Val-V[X1][Dolaproine][ξF][Phe(4-NH2)]-OH) | > 100 | least potency |  |  |
| CC[C@H](C)C([C@@H](CC(=O)N1CCC[C@H]1[C@H](OC)[C@@H](C)C(=O)NC(Cc1ccccc1)C(=O)N[C@@H](Cc1ccc([N+](=O)[O-])cc1)C(=O)OC)OC)N(C)C(=O)C(NC(=O)[C@H](C(C)C)N(C)C)C(C)C (some centres unmarked) [NPEA(COOMe)-AF] (NMe2Val-[ξV][ξDil][Dolaproine][ξF][Phe(4-NO2)]-OMe) | 0.44 | comparable to the well-known toxin MMAE |  |  |
